Measured values published in the supplement of paper PMC10307832.

How the values were obtained:
Test in all cases: relative viability (nuclei count vs DMSO), 5 days (fraction); higher = more cells survive
[1] = compound: CO[C@@H]1[C@H](N(C)C(=O)c2ccccc2)C[C@H]2O[C@]1(C)n1c3ccccc3c3c4c(c5c6ccccc6n2c5c31)C(=O)NC4 [Midostaurin] + O=C(CCCCCCC(=O)Nc1ccccc1)NO [Vorinostat] (partner 1 µM)
Outline: (§1)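 Medians of duplicate plates are given as relative viability. That measure is the nuclei count in treated wells divided by the count in vehicle wells. Counts were taken on 4× images of lung cancer cell lines in 1536-well plates, 5 days after pin-tool dosing the day after seeding with one drug alone or a fixed anchor-drug dose plus five library-drug doses (not always all listed) in √10 steps.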

[2] = compound: COc1cc(-c2nn([C@H]3CC[C@H](N4CCN(C(C)=O)CC4)CC3)c3ncnc(N)c23)ccc1NC(=O)c1cc2ccccc2n1C + COc1cccc2cc(-c3nc([C@H]4CC[C@H](C(=O)O)CC4)n4ncnc(N)c34)[nH]c12 [OSI-027] (partner 0.5 µM)
Outline: as §1

[3] = compound: COc1cc(-c2nn([C@H]3CC[C@H](N4CCN(C(C)=O)CC4)CC3)c3ncnc(N)c23)ccc1NC(=O)c1cc2ccccc2n1C + C[C@]1(O)C[C@@H](c2nc(-c3ccc4ccc(-c5ccccc5)nc4c3)c3c(N)nccn32)C1 [Linsitinib] (partner 1 µM)
Outline: as §1

[4] = compound: COc1cc(-c2nn([C@H]3CC[C@H](N4CCN(C(C)=O)CC4)CC3)c3ncnc(N)c23)ccc1NC(=O)c1cc2ccccc2n1C + Cc1nc(NC(=O)N2CCC[C@H]2C(N)=O)sc1-c1ccnc(C(C)(C)C(F)(F)F)c1 [Alpelisib] (partner 2 µM)
Outline: as §1

[5] = compound: COc1cc(-c2nn([C@H]3CC[C@H](N4CCN(C(C)=O)CC4)CC3)c3ncnc(N)c23)ccc1NC(=O)c1cc2ccccc2n1C + O=C(CCCCCCC(=O)Nc1ccccc1)NO [Vorinostat] (partner 1 µM)
Outline: as §1

Cell Line | relative viability ([1]; first compound 0.01 µM) | relative viability ([1]; first compound 0.03162 µM) | relative viability ([1]; first compound 0.1 µM) | relative viability ([1]; first compound 0.3162 µM) | relative viability ([2]; first compound 0.0128 µM) | relative viability ([2]; first compound 0.04048 µM) | relative viability ([2]; first compound 0.128 µM) | relative viability ([2]; first compound 1.28 µM) | relative viability ([3]; first compound 0.0128 µM) | relative viability ([3]; first compound 0.04048 µM) | relative viability ([3]; first compound 0.128 µM) | relative viability ([3]; first compound 1.28 µM) | relative viability ([4]; first compound 0.0128 µM) | relative viability ([4]; first compound 0.04048 µM) | relative viability ([4]; first compound 0.128 µM) | relative viability ([4]; first compound 1.28 µM) | relative viability ([5]; first compound 0.0128 µM) | relative viability ([5]; first compound 0.04048 µM) | relative viability ([5]; first compound 0.128 µM) | relative viability ([5]; first compound 1.28 µM)
ABC-1 | 1.23 | 1.37 | 1.08 | 0.996 | 0.499 | 0.434 | 0.384 | 0.377 | 0.709 | 0.887 | 0.749 | 0.697 | 0.972 | 1.08 | 0.78 | 1 | 1.21 | 0.965 | 1.19 | 1.14
NCI-H2347 | 0.575 | 0.511 | 0.602 | 0.419 | 0.406 | – | 0.434 | 0.418 | 0.949 | 0.856 | 0.961 | 1.09 | 1.05 | 0.948 | 0.924 | 1.03 | 0.658 | 0.499 | 0.521 | 0.543
NCI-H1993 | 0.83 | 0.782 | 0.87 | 0.38 | 0.52 | 0.575 | 0.552 | 0.431 | 0.91 | 0.691 | 0.698 | 0.611 | 0.76 | 0.771 | 0.599 | 0.569 | 0.916 | 0.682 | 0.957 | 0.726
NCI-H322M | 0.877 | 0.849 | 0.994 | 1.28 | 0.584 | 0.509 | 0.5 | 0.526 | 0.9 | 0.909 | 0.767 | 0.803 | 0.801 | 0.844 | 0.681 | 0.741 | 0.868 | 0.931 | 0.718 | 0.745
NCI-H838 | 0.72 | 0.705 | 0.606 | 0.262 | 0.38 | 0.375 | 0.422 | 0.359 | 0.974 | 1.1 | 1.06 | 0.657 | 1.03 | 1.01 | 1.01 | 0.664 | 0.783 | 0.763 | 0.742 | 0.685
HARA | 0.482 | 0.603 | 0.466 | 0.505 | 0.489 | 0.312 | 0.482 | 0.248 | 1 | 0.873 | 0.891 | 0.62 | 0.855 | 0.886 | 0.735 | 0.447 | 0.698 | 0.372 | 0.421 | 0.325
NCI-H2087 | 0.56 | 0.528 | 0.462 | 0.429 | 0.692 | – | 0.611 | 0.648 | 1.1 | 0.875 | 1.12 | 1.11 | 1.29 | 0.781 | 1.27 | 1.2 | 0.745 | – | 0.798 | 0.987
NCI-H1437 | 0.869 | 0.833 | 0.818 | 0.654 | 0.796 | 0.992 | 0.861 | 0.838 | 0.987 | 1.08 | 0.986 | 0.523 | 0.968 | 0.992 | 0.897 | 0.757 | 0.967 | 1 | 0.856 | 0.864
NCI-H650 | 0.431 | 0.474 | 0.875 | 0.412 | 0.56 | 0.798 | 0.524 | 0.458 | 0.854 | 1.26 | 0.894 | 0.64 | 1.49 | 1.34 | 1.12 | 1.05 | 0.633 | 0.709 | 0.443 | 0.517
COR-L23 | 0.456 | 0.311 | 0.276 | 0.205 | 0.753 | 0.752 | 0.71 | 0.672 | 0.866 | 0.96 | 0.992 | 0.924 | 0.749 | 0.97 | 0.682 | 0.682 | 0.528 | 0.615 | 0.42 | 0.558
COR-L 105 | 0.899 | 0.846 | 0.702 | 0.535 | 0.59 | 0.799 | 0.636 | 0.343 | 1.04 | 0.77 | 0.898 | 0.549 | 1.13 | 1.09 | 1.08 | 0.531 | 0.75 | 1.04 | 0.907 | 0.584
LK-2 | 0.252 | 0.258 | 0.328 | 0.277 | 0.267 | 0.187 | 0.198 | 0.184 | 0.554 | 0.522 | 0.461 | 0.231 | 0.91 | 1.26 | 1.07 | 0.789 | 0.365 | 0.162 | 0.288 | 0.183
201T | 0.991 | 0.871 | 1.02 | 1.08 | 0.646 | 0.765 | 0.746 | 0.339 | 0.979 | 1.05 | 0.927 | 0.665 | 0.996 | 1.09 | 0.908 | 0.591 | 1.01 | 1.1 | 0.909 | 0.654
HCC-44 | 1.08 | 1.06 | 1.11 | 1.16 | 0.477 | 0.528 | 0.549 | 0.484 | 0.764 | 0.687 | 0.692 | 0.536 | 0.923 | 0.763 | 0.789 | 0.511 | 1.24 | 1.1 | 1.12 | 1.18
NCI-H596 | 0.554 | 0.645 | 0.625 | 0.877 | 0.681 | 0.526 | 0.641 | 0.441 | 1.1 | 1.3 | 1.12 | 0.748 | 0.523 | 0.511 | 0.516 | 0.271 | 0.779 | 0.703 | 0.629 | 0.611
H3255 | 0.86 | 0.615 | 0.765 | 0.744 | 0.564 | 0.476 | 0.573 | 0.552 | 1.04 | 0.935 | 0.887 | 0.663 | 0.886 | 0.615 | 0.607 | 0.433 | 1.01 | 0.725 | 0.824 | 0.708
NCI-H647 | 0.591 | 0.988 | 0.536 | 0.275 | 0.594 | 0.656 | 0.617 | 0.435 | 1.3 | 1.36 | 1.14 | 0.785 | 1.03 | 1.18 | 0.945 | 0.429 | 0.422 | 0.698 | 0.606 | 0.421
NCI-H2023 | 0.601 | 0.78 | 0.5 | 0.146 | 0.409 | 0.4 | 0.423 | 0.28 | 0.7 | 0.641 | 0.624 | 0.531 | 0.607 | 0.651 | 0.546 | 0.521 | 0.821 | 0.631 | 0.646 | 0.695
NCI-H23 | 0.514 | 0.68 | 0.54 | 0.243 | 0.646 | 0.368 | 0.578 | 0.415 | 0.613 | 0.417 | 0.612 | 0.49 | 0.63 | 0.632 | 0.659 | 0.476 | 0.734 | 0.51 | 0.541 | 0.519
NCI-H1944 | 0.528 | 0.595 | 0.496 | 0.453 | 0.457 | 0.332 | 0.412 | 0.353 | 1.18 | 1.16 | 1.06 | 0.839 | 0.827 | 0.879 | 0.784 | 0.506 | 0.654 | 0.641 | 0.578 | 0.416
NCI-H1793 | 0.766 | 0.789 | 0.854 | 0.296 | 0.369 | 0.177 | 0.237 | 0.186 | 0.99 | 0.979 | 0.712 | 0.545 | 0.734 | 0.682 | 0.595 | 0.442 | 0.981 | 0.658 | 0.794 | 0.528
NCI-H520 | 0.684 | 0.702 | 0.694 | 0.412 | 0.191 | 0.252 | 0.201 | 0.174 | 0.715 | 0.795 | 0.9 | 0.683 | 0.881 | 0.908 | 0.697 | 0.471 | 0.738 | 0.652 | 0.6 | 0.543
NCI-H460 | 0.697 | 0.578 | 0.65 | 0.115 | 0.609 | 0.584 | 0.623 | 0.395 | 0.662 | 1.09 | 0.669 | 0.344 | 0.386 | 0.59 | 0.57 | 0.378 | 0.735 | 0.983 | 0.642 | 0.709
EKVX | 0.735 | 0.714 | 0.808 | 0.583 | 0.765 | 0.853 | 0.618 | 0.54 | 1.2 | 1.12 | 0.918 | 0.499 | 0.827 | 1.09 | 0.75 | 0.509 | 0.966 | 0.801 | 0.674 | 0.382
NCI-H358 | 0.625 | 0.536 | 0.391 | 0.197 | 0.645 | 0.618 | 0.508 | 0.28 | 0.664 | 0.73 | 0.681 | 0.462 | 0.725 | 0.747 | 0.76 | 0.555 | 0.706 | 0.672 | 0.523 | 0.646
EPLC-272H | 0.47 | 0.436 | 0.426 | 0.393 | 0.27 | – | 0.293 | 0.264 | 1.45 | 1.21 | 0.878 | 1.04 | 0.976 | 1.09 | 0.923 | 0.765 | 0.357 | 0.345 | 0.62 | 0.457
NCI-H1395 | 0.651 | 0.856 | 0.671 | 0.682 | 0.573 | 0.674 | 0.723 | 0.556 | 0.965 | 1.21 | 0.916 | 0.768 | 0.947 | 1.47 | 0.995 | 0.953 | 0.823 | 0.594 | 0.698 | 0.516
